The results in this text go back to patent US11045457B2, “Piperidinyl-3-(aryloxy)propanamides and propanoates” (priority 2018, dated 2021).

One assay deals with SSTR1 (Homo sapiens (Human), UniProt P30872). The assay is described as follows: SSTR1 I-125 somatostatin competition binding assay for selectivity versus SSTR4 (membranes from CHO-K1 cells overexpressing SSTR1).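 For all read-outs here: Filter-based radioligand binding, bound label counted by scintillation after 60 min incubation at room temperature.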 The note with it: for SSTR1 Binding pIC50: competition with I-125 labeled somatostatin, CHO-K1 SSTR1 membranes.
Sequence of SSTR1 (P30872 whole entry): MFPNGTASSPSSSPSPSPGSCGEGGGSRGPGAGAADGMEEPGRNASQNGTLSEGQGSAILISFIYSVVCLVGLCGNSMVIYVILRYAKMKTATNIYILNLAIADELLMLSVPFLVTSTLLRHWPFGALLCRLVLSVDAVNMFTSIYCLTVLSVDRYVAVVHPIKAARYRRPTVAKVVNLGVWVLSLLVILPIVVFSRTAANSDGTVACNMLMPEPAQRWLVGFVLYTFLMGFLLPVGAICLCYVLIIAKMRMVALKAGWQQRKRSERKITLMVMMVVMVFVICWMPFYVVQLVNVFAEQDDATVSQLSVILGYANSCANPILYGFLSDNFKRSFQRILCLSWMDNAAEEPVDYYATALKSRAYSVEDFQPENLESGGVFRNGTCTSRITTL
In assay [1] the target is T1, SSTR4 (Homo sapiens (Human), UniProt P31391). As to the kind of experiment: SSTR4 I-125 somatostatin competition binding assay (membranes from CHO-K1 cells overexpressing SSTR4). The following applies: competition with I-125 labeled somatostatin; for IC50: read-out: SSTR4 Binding pIC50 (converted).
T1 sequence (P31391 whole entry): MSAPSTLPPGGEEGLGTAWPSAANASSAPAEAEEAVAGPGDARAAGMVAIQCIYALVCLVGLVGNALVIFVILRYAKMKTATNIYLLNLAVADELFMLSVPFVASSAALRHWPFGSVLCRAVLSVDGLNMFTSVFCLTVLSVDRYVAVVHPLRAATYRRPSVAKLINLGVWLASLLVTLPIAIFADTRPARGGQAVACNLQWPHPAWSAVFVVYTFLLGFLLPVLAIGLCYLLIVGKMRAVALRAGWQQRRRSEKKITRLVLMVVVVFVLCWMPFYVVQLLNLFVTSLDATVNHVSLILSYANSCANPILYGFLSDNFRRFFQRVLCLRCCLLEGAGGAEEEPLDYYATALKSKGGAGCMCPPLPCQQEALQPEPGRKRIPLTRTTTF
Method: Membranes from CHO-K1 cells overexpressing SSTR4 are purchased from Perkin Elmer (catalog number ES-524-M400UA). Test compounds are suspended in DMSO and then diluted in assay buffer (25 mM HEPES pH 7.4, 10 mM MgCl2, 1 mM CaCl2), 0.5% BSA) plus 0.2 nM I-125 labeled somatostatin (Perkin Elmer catalog number NEX389). […] Then 1 μg of SSTR4 membranes in 50 μL assay buffer are added per well. The Plate is incubated for 60 minutes at room temperature. FilterMat A filters (Perkin Elmer catalog number 1450-421) are pre-soaked in 0.5% PEI (Sigma catalog number P3143). The contents of the assay plate are transferred to filters with a TomTech harvester and washed 5 times with 20 mM HEPES, 100 mM NaCl. The filters are dried in a microwave oven then transferred to sample bag containing a scintillator sheet (Perkin Elmer catalog number 1450-441). The scintillator sheets are melted to filters using a heat block. The filters are then read in a MicroBeta scintillation counter. Binding Ki curves are generated using Activity Base for Screening Data Management and the results are reported as pIC50.
In assay [2] the target is T1, SSTR4. As to the kind of experiment: Inhibition of forskolin stimulated cAMP in CHO-K1 cells overexpressing SSTR4. The note with it: for EC50: read-out: SSTR4 Activity pEC50 (converted). The class given is cell-based. The method in brief: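 Read-out is a HTRF LANCE Ultra cAMP competition using Eu-labelled streptavidin and biotin-cAMP, incubated 60 min at room temperature. It followed a 30 min room-temperature exposure of Kreb's Ringer-washed cells to compound plus forskolin. Potency is expressed as pEC50.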

Each structure is given as a SMILES string.

Method for SSTR1: Membranes from CHO-K1 cells overexpressing SSTR1 are purchased from Perkin Elmer (catalog number ES-520-M400UA). […] Then 10 μg of SSTR1 membranes in 50 μL assay buffer are added per well. The plate is incubated for 60 minutes at room temperature. […] The contents of the assay plate are transferred to filters with a TomTech harvester and washed 5 times with 20 mM HEPES, 100 mM NaCl. […] The scintillator sheets are melted to the filters using a heat block. The filters are then read in a MicroBeta scintillation counter. Binding Ki curves are generated using Activity Base for Screening Data Management and the results are reported as pIC50.

Consider `Cc1ccc([C@@H]2CN(C)C[C@H]2NC(=O)C(C)(C)COc2ncccc2C(F)(F)F)cn1` (racemic) [Example 62, trans-2,2-dimethyl-N-(1-methyl-4-(6-methylpyridin-3-yl)pyrrolidin-3-yl)-3-((3-(trifluoromethyl)pyridin-2-yl)oxy)propanamide], for which the IC50 on SSTR1 was 251 nM; on SSTR4 [1], 200 nM. Further, the EC50 on SSTR4 [2] was 15.8 nM.

As for `CN1CC[C@@H](NC(=O)C(C)(C)COc2ncccc2C(F)(F)F)[C@H](c2cnn(C(F)F)c2)C1` (racemic) [Example 125, trans-N-(3-(1-(difluoromethyl)-1H-pyrazol-4-yl)-1-methylpiperidin-4-yl)-2,2-dimethyl-3-((3-(trifluoromethyl)pyridin-2-yl)oxy)propanamide], the IC50 on SSTR1 was 794 nM; at SSTR4 [1], 50.1 nM. Also, the EC50 at SSTR4 [2] was 1.58 nM.

In the case of `CC[C@@H]1CN(C)CC[C@H]1NC(=O)C(C)(C)COc1ncccc1C` (racemic) [Example 127, trans-N-(3-ethyl-1-methylpiperidin-4-yl)-2,2-dimethyl-3-((3-methylpyridin-2-yl)oxy)propanamide], the IC50 is 7940 nM at SSTR1 and 79.4 nM on SSTR4 [1]. The EC50 at SSTR4 [2] is 12.6 nM.

For `CC[C@@H]1CN(C)CC[C@H]1NC(=O)C(C)(C)COc1ncc(C)cc1C` (racemic) [Example 128, trans-3-((3,5-dimethylpyridin-2-yl)oxy)-N-(3-ethyl-1-methylpiperidin-4-yl)-2,2-dimethylpropanamide], the IC50 at SSTR1 is 3160 nM; at SSTR4 [1] it was 63.1 nM. Also, on SSTR4 [2], the EC50 was 15.8 nM.

Consider `CN(C(=O)C(C)(C)COc1ncccc1C(F)(F)F)[C@@H]1CCNC[C@H]1c1ccccc1` (racemic) [Example 162, trans-N,2,2-trimethyl-N-(3-phenylpiperidin-4-yl)-3-((3-(trifluoromethyl)pyridin-2-yl)oxy)propanamide], for which the IC50 at SSTR1 is 50100 nM; at SSTR4 [1], 1580 nM. Moreover, the EC50 at SSTR4 [2] was 126 nM.

On to `C[C@@H]1CN(C)C[C@H]1NC(=O)C(C)(C)COc1ncccc1C(F)(F)F` (racemic) [Example 165, N-(trans-1,4-dimethylpyrrolidin-3-yl)-2,2-dimethyl-3-((3-(trifluoromethyl)pyridin-2-yl)oxy)propanamide], for which the values for the IC50 on SSTR1 and at SSTR4 [1] were 5010 nM and 158 nM, respectively. The EC50 at SSTR4 [2] was 31.6 nM.

As for `Cc1ccccc1[C@@H]1CNCC[C@H]1OC(=O)C(C)(C)COc1ncccc1C(F)(F)F` (racemic) [Example 168, trans-3-(o-tolyl)piperidin-4-yl 2,2-dimethyl-3-((3-(trifluoromethyl)pyridin-2-yl)oxy)propanoate], the IC50 is 15800 nM at SSTR1 and 158 nM on SSTR4 [1]. Also, the EC50 at SSTR4 [2] was 25.1 nM.

`Cc1ncccc1[C@@H]1CNCC[C@H]1N(C)C(=O)C(C)(C)COc1ncccc1C(F)(F)F` (racemic) [Example 172, N,2,2-trimethyl-N-(trans-3-(2-methylpyridin-3-yl)piperidin-4-yl)-3-((3-(trifluoromethyl)pyridin-2-yl)oxy)propanamide]: the results for the IC50 on SSTR1 and on SSTR4 [1] were 39800 nM and 2000 nM, respectively. The EC50 on SSTR4 [2] was 12.6 nM.

As to `C[C@@H]1CN(C)C[C@H]1NC(=O)C(C)(C)COc1ncccc1C1CC1` (racemic) [Example 181, 3-((3-cyclopropylpyridin-2-yl)oxy)-N-(trans-1,4-dimethylpyrrolidin-3-yl)-2,2-dimethylpropanamide], the IC50 at SSTR1 is 3160 nM; at SSTR4 [1], 398 nM. Also, the EC50 at SSTR4 [2] is 15.8 nM.

`Cc1cccnc1OCC(C)(C)C(=O)N[C@@H]1CN(C)C[C@H]1C` (racemic) [Example 182, N-(trans-1,4-dimethylpyrrolidin-3-yl)-2,2-dimethyl-3-((3-methylpyridin-2-yl)oxy)propanamide]: the IC50 was 12600 nM at SSTR1 and 794 nM at SSTR4 [1]. At SSTR4 [2], the EC50 was 31.6 nM.

In the case of `C[C@@H]1CN(C)CC[C@H]1NC(=O)C(F)(F)COc1ncccc1OC(F)(F)F` (racemic) [Example 200, N-(trans-1,3-dimethylpiperidin-4-yl)-2,2-difluoro-3-((3-(trifluoromethoxy)pyridin-2-yl)oxy)propanamide], the IC50 at SSTR1 is 39800 nM; at SSTR4 [1] it was 126 nM. Moreover, the EC50 at SSTR4 [2] was 31.6 nM.

On to `CC(C)[C@@H]1CN(C)C[C@H]1NC(=O)C(C)(C)COc1ncccc1OC(F)(F)F` (relative stereo) [Example 16, trans-N-(4-isopropyl-1-methylpyrrolidin-3-yl)-2,2-dimethyl-3-((3-(trifluoromethoxy)pyridin-2-yl)oxy)propanamide], for which, on SSTR1, the “SSTR1 Binding pIC50” value was determined as 5.5. Further, the “SSTR4 Binding pIC50” value on SSTR4 [1] is 7.2. On SSTR4 [2], the “SSTR4 Activity pEC50” value amounted to 7.8.

For the compound `Cc1cccnc1OCC(C)(C)C(=O)N[C@@H]1CCN(C)C[C@H]1C` (relative stereo) [Example 17, trans-N-(1,3-dimethylpiperidin-4-yl)-2,2-dimethyl-3-((3-methylpyridin-2-yl)oxy)propanamide], the “SSTR1 Binding pIC50” value on SSTR1 is given as 4.7. For the same compound, the “SSTR4 Binding pIC50” value at SSTR4 [1] stood at 6.7. Further, at SSTR4 [2], the “SSTR4 Activity pEC50” value is 7.7.

As to `Cc1cccnc1OCC(C)(C)C(=O)N[C@@H]1CN(C)C[C@H]1c1cnn(C)c1` (relative stereo) [Example 18, trans-2,2-dimethyl-N-(1-methyl-4-(1-methyl-1H-pyrazol-4-yl)pyrrolidin-3-yl)-3-((3-methylpyridin-2-yl)oxy)propanamide], the “SSTR1 Binding pIC50” value on SSTR1 is 5.1. Besides, the “SSTR4 Binding pIC50” value at SSTR4 [1] came to 6.0. Besides, on SSTR4 [2], the “SSTR4 Activity pEC50” value is listed as 7.1.

As for `CN1C[C@@H](NC(=O)C(C)(C)COc2ncccc2C(F)(F)F)[C@H](c2cnn(C)c2)C1` (relative stereo) [Example 19, trans-2,2-dimethyl-N-(1-methyl-4-(1-methyl-1H-pyrazol-4-yl)pyrrolidin-3-yl)-3-((3-(trifluoromethyl)pyridin-2-yl)oxy)propanamide], the “SSTR1 Binding pIC50” value on SSTR1 turned out to be 6.1. Also, the “SSTR4 Binding pIC50” value on SSTR4 [1] came out at 6.8. In addition, the “SSTR4 Activity pEC50” value at SSTR4 [2] stood at 7.7.

Take `CN1C[C@@H](NC(=O)C(C)(C)COc2ncccc2C2CC2)[C@H](c2cnn(C)c2)C1` (relative stereo) [Example 22, trans-3-((3-cyclopropylpyridin-2-yl)oxy)-2,2-dimethyl-N-(1-methyl-4-(1-methyl-1H-pyrazol-4-yl)pyrrolidin-3-yl)propanamide]: the “SSTR1 Binding pIC50” value on SSTR1 stood at 6.0. Also, the “SSTR4 Binding pIC50” value on SSTR4 [1] was found to be 7.0. Besides, the “SSTR4 Activity pEC50” value on SSTR4 [2] was 7.9.

For the compound `Cc1cccnc1OCC(C)(C)C(=O)N[C@@H]1CN(C)C[C@H]1c1cn(C)nc1C` (relative stereo) [Example 23, trans-N-(4-(1,3-dimethyl-1H-pyrazol-4-yl)-1-methylpyrrolidin-3-yl)-2,2-dimethyl-3-((3-methylpyridin-2-yl)oxy)propanamide], the “SSTR1 Binding pIC50” value on SSTR1 was determined as 5.8. The “SSTR4 Binding pIC50” value at SSTR4 [1] was 6.6. For the same compound, the “SSTR4 Activity pEC50” value on SSTR4 [2] is listed as 8.0.

With `Cc1nn(C)cc1[C@@H]1CN(C)C[C@H]1NC(=O)C(C)(C)COc1ncccc1C1CC1` (relative stereo) [Example 24, trans-3-((3-cyclopropylpyridin-2-yl)oxy)-N-(4-(1,3-dimethyl-1H-pyrazol-4-yl)-1-methylpyrrolidin-3-yl)-2,2-dimethylpropanamide], the “SSTR1 Binding pIC50” value on SSTR1 was 6.4. Also, the “SSTR4 Binding pIC50” value on SSTR4 [1] stood at 7.0. At SSTR4 [2], the “SSTR4 Activity pEC50” value is recorded as 8.3.

Take `Cc1nn(C)cc1[C@@H]1CN(C)C[C@H]1NC(=O)C(C)(C)COc1ncccc1C(F)(F)F` (relative stereo) [Example 25, trans-N-(4-(1,3-dimethyl-1H-pyrazol-4-yl)-1-methylpyrrolidin-3-yl)-2,2-dimethyl-3-((3-(trifluoromethyl)pyridin-2-yl)oxy)propanamide]: the “SSTR1 Binding pIC50” value at SSTR1 is on record as 6.4. For the same compound, the “SSTR4 Binding pIC50” value at SSTR4 [1] is given as 7.0. The “SSTR4 Activity pEC50” value on SSTR4 [2] is 8.3.

As for `Cc1cccnc1OCC(C)(C)C(=O)N[C@@H]1CN(C)C[C@H]1c1cnn(C)c1C` (relative stereo) [Example 26, trans-N-(4-(1,5-dimethyl-1H-pyrazol-4-yl)-1-methylpyrrolidin-3-yl)-2,2-dimethyl-3-((3-methylpyridin-2-yl)oxy)propanamide], the “SSTR1 Binding pIC50” value on SSTR1 turned out to be 6.1. The “SSTR4 Binding pIC50” value on SSTR4 [1] is listed as 7.3. On SSTR4 [2], the “SSTR4 Activity pEC50” value was 8.6.

On to `Cc1c([C@@H]2CN(C)C[C@H]2NC(=O)C(C)(C)COc2ncccc2C2CC2)cnn1C` (relative stereo) [Example 27, trans-3-((3-cyclopropylpyridin-2-yl)oxy)-N-(4-(1,5-dimethyl-1H-pyrazol-4-yl)-1-methylpyrrolidin-3-yl)-2,2-dimethylpropanamide], for which the “SSTR1 Binding pIC50” value at SSTR1 stood at 6.9. Moreover, on SSTR4 [1], the “SSTR4 Binding pIC50” value was 7.6. Besides, at SSTR4 [2], the “SSTR4 Activity pEC50” value was 8.9.

With `Cc1c([C@@H]2CN(C)C[C@H]2NC(=O)C(C)(C)COc2ncccc2C(F)(F)F)cnn1C` (relative stereo) [Example 28, trans-N-(4-(1,5-dimethyl-1H-pyrazol-4-yl)-1-methylpyrrolidin-3-yl)-2,2-dimethyl-3-((3-(trifluoromethyl)pyridin-2-yl)oxy)propanamide], the “SSTR1 Binding pIC50” value at SSTR1 amounted to 6.8. Further, the “SSTR4 Binding pIC50” value at SSTR4 [1] turned out to be 7.7. On SSTR4 [2], the “SSTR4 Activity pEC50” value was 8.8.
